In the NIST ThermoML archive (doi:10.1016/j.jct.2006.10.006):
Numbers after ± are expanded uncertainties.

What was measured:
[1] = Crystal 1; DTA
[2] = Molar enthalpy of transition or fusion; conditions: Crystal; DSC
[3] = molar enthalpy of vaporization or sublimation; conditions: 298.15 K; Crystal; Static calorimetry

Compound: CCOC(=S)NC(=O)c1cccs1 [carbamothioic acid, N-(2-thienylcarbonyl)-, O-ethyl ester]
- Triple point temperature [1]: 345.9 ± 0.5 K
- Molar enthalpy of transition or fusion [2]: 5.23 ± 0.234 kcal/mol
- molar enthalpy [3]: 34.2 ± 1.43 kcal/mol
